In patent US10336730B2, “Substituted glycine derived FXIA inhibitors” (BRISTOL-MYERS SQUIBB COMPANY, priority 2015, dated 2019):

Target: T1, purified human Factor XIa (Homo sapiens, UniProt P03951)
T1 construct: purchased Haematologic Technologies
Experiment: Factor XIa enzyme inhibition assay (chromogenic substrate S-2366), Ki
Assay type: biochemical
Details: substrate S-2366, pH 7.4
Protocol: The effectiveness of compounds of the present invention as inhibitors of the coagulation Factors XIa, VIIa, IXa, Xa, XIIa, plasma kallikrein, thrombin, chemytrypsin or trypsin can be determined using a relevant purified serine protease, respectively, and an appropriate synthetic substrate. The rate of hydrolysis of the chromogenic or fluorogenic substrate by the relevant serine protease was measured both in the absence and presence of compounds of the present invention. […] A decrease in the rate of absorbance or fluorescence change in the presence of inhibitor is indicative of enzyme inhibition. Such methods are known to one skilled in the art. The results of this assay are expressed as the inhibitory constant, Ki.
Factor XIa determinations were made in 50 mM HEPES buffer at pH 7.4 containing 145 mM NaCl, 5 mM KCl, and 0.1% PEG 8000 (polyethylene glycol; JT Baker or Fisher Scientific). Determinations were made using purified human Factor XIa at a final concentration of […] (Haematologic Technologies) and the synthetic substrate S-2366 (pyroGlu-Pro-Arg-pNA; CHROMOGENIX® or AnaSpec) at a concentration of 0.0002-0.001 M.
Values of Ki were determined by allowing the protease to react with the substrate in the presence of the inhibitor. Reactions were allowed to go for periods of 20-180 minutes (depending on the protease) and the velocities (rate of absorbance or fluorescence change versus time) were measured. The following relationships were used to calculate Ki values: (Vmax*S)/(Km+S) (vo−vs)/vs=I/(Ki*(1+S/Km)) for a competitive inhibitor with one binding site; or vs/vo=A+(B−A)/(1+(IC50/(I)^n)); and Ki=IC50/(1+S/Km) for a competitive inhibitor where: […]

T1 sequence (P03951 388-625 limits assumed): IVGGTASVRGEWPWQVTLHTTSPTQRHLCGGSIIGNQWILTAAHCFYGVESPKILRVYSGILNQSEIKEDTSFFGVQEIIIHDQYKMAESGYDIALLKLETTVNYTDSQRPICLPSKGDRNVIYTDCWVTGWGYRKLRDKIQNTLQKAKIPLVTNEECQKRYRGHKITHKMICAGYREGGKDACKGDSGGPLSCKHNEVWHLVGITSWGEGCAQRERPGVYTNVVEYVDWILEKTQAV
T1 sequence (P03951 19-387 partner limits assumed): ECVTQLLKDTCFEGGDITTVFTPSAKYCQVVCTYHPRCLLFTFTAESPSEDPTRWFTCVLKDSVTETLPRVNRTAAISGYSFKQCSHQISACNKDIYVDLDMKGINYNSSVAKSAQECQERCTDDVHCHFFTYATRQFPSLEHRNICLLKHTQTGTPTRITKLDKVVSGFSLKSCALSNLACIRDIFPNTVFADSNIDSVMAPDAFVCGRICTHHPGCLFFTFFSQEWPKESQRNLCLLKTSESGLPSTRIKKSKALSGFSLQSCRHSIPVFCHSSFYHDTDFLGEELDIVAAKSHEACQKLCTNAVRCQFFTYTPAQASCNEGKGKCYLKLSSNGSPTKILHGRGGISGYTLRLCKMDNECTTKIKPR

Row | SMILES | Ki
1 | COCCN(C)C(=O)[C@H](Cc1ccccc1)n1cnc(-c2cc(Cl)ccc2-n2cc(Cl)nn2)cc1=O [Example 58, (S)-2-(4-(5-chloro-2-(4-chloro-1H-1,2,3-triazol-1-yl)phenyl)-6-oxopyrimidin-1(6H)-yl)-N-(2-methoxyethyl)-N-methyl-3-phenylpropanamide] | 7.86 µM
2 | COC(=O)CCNC(=O)[C@H](Cc1ccccc1)n1cnc(-c2cc(Cl)ccc2-n2cc(Cl)nn2)cc1=O [Example 61, methyl (S)-3-(2-(4-(5-chloro-2-(4-chloro-1H-1,2,3-triazol-1-yl)phenyl)-6-oxopyrimidin-1(6H)-yl)-3-phenylpropanamido)propanoate] | 3.65 µM
3 | CCOC(=O)c1cn2c(n1)CN(C(=O)[C@H](Cc1ccccc1)n1cnc(-c3cc(Cl)ccc3-n3cc(Cl)nn3)cc1=O)CC2 [Example 65, ethyl (S)-7-(2-(4-(5-chloro-2-(4-chloro-1H-1,2,3-triazol-1-yl)phenyl)-6-oxopyrimidin-1(6H)-yl)-3-phenylpropanoyl)-5,6,7,8-tetrahydroimidazo[1,2-a]pyrazine-2-carboxylate] | 4.94 µM
4 | CN1CCC2(CCCN(C(=O)[C@H](Cc3ccccc3)n3cnc(-c4cc(Cl)ccc4-n4cc(Cl)nn4)cc3=O)C2)C1=O (stereo partly drawn) [Example 66, 7-((S)-2-(4-(5-chloro-2-(4-chloro-1H-1,2,3-triazol-1-yl)phenyl)-6-oxopyrimidin-1(6H)-yl)-3-phenylpropanoyl)-2-methyl-2,7-diazaspiro[4.5]decan-1-one] | 12.2 µM
5 | CC(C)c1nnc2n1CCN(C(=O)[C@H](Cc1ccccc1)n1cnc(-c3cc(Cl)ccc3-n3cc(Cl)nn3)cc1=O)C2 [Example 67, (S)-6-(5-chloro-2-(4-chloro-1H-1,2,3-triazol-1-yl)phenyl)-3-(1-(3-isopropyl-5,6-dihydro-[1,2,4]triazolo[4,3-a]pyrazin-7(8H)-yl)-1-oxo-3-phenylpropan-2-yl)pyrimidin-4(3H)-one] | 7.37 µM
6 | O=C(NCc1ccccn1)[C@H](Cc1ccccc1)n1cnc(-c2cc(Cl)ccc2-n2cc(Cl)nn2)cc1=O [Example 70, (S)-2-(4-(5-chloro-2-(4-chloro-1H-1,2,3-triazol-1-yl)phenyl)-6-oxopyrimidin-1(6H)-yl)-3-phenyl-N-(pyridin-2-ylmethyl)propanamide] | 0.931 µM
7 | O=C([C@H](Cc1ccccc1)n1cnc(-c2cc(Cl)ccc2-n2cc(Cl)nn2)cc1=O)N1CCc2ccccc2C1 [Example 71, (S)-6-(5-chloro-2-(4-chloro-1H-1,2,3-triazol-1-yl)phenyl)-3-(1-(3,4-dihydroisoquinolin-2(1H)-yl)-1-oxo-3-phenylpropan-2-yl)pyrimidin-4(3H)-one] | 0.79 µM
8 | O=C([C@H](Cc1ccccc1)n1cnc(-c2cc(Cl)ccc2-n2cc(Cl)nn2)cc1=O)N1CCC(Cc2ccccc2)CC1 [Example 72, (S)-3-(1-(4-benzylpiperidin-1-yl)-1-oxo-3-phenylpropan-2-yl)-6-(5-chloro-2-(4-chloro-1H-1,2,3-triazol-1-yl)phenyl)pyrimidin-4(3H)-one] | 13.3 µM
9 | O=C([C@H](Cc1ccccc1)n1cnc(-c2cc(Cl)ccc2-n2cc(Cl)nn2)cc1=O)N1CCC(c2ccccc2)CC1 [Example 73, (S)-6-(5-chloro-2-(4-chloro-1H-1,2,3-triazol-1-yl)phenyl)-3-(1-oxo-3-phenyl-1-(4-phenylpiperidin-1-yl)propan-2-yl)pyrimidin-4(3H)-one] | 4.44 µM
10 | O=C(NCc1ccncc1)[C@H](Cc1ccccc1)n1cnc(-c2cc(Cl)ccc2-n2cc(Cl)nn2)cc1=O [Example 74, (S)-2-(4-(5-chloro-2-(4-chloro-1H-1,2,3-triazol-1-yl)phenyl)-6-oxopyrimidin-1(6H)-yl)-3-phenyl-N-(pyridin-4-ylmethyl)propanamide] | 0.552 µM

Continued by falling Ki, values first:

Row | Ki | SMILES
11 | 8.98 µM | NC(=O)CNC(=O)[C@H](Cc1ccccc1)n1cnc(-c2cc(Cl)ccc2-n2cc(Cl)nn2)cc1=O [Example 62, (S)-N-(2-amino-2-oxoethyl)-2-(4-(5-chloro-2-(4-chloro-1H-1,2,3-triazol-1-yl)phenyl)-6-oxopyrimidin-1(6H)-yl)-3-phenylpropanamide]
12 | 7.62 µM | O=C1CN(C(=O)[C@H](Cc2ccccc2)n2cnc(-c3cc(Cl)ccc3-n3cc(Cl)nn3)cc2=O)CCN1 [Example 53, (S)-6-(5-chloro-2-(4-chloro-1H-1,2,3-triazol-1-yl)phenyl)-3-(1-oxo-1-(3-oxopiperazin-1-yl)-3-phenylpropan-2-yl)pyrimidin-4(3H)-one]
13 | 7.62 µM | O=C(NCCN1CCCC1)[C@H](Cc1ccccc1)n1cnc(-c2cc(Cl)ccc2-n2cc(Cl)nn2)cc1=O [Example 69, (S)-2-(4-(5-chloro-2-(4-chloro-1H-1,2,3-triazol-1-yl)phenyl)-6-oxopyrimidin-1(6H)-yl)-3-phenyl-N-(2-(pyrrolidin-1-yl)ethyl)propanamide]
14 | 7.5 µM | CN(C)C1CCN(C(=O)[C@H](Cc2ccccc2)n2cnc(-c3cc(Cl)ccc3-n3cc(Cl)nn3)cc2=O)CC1 [Example 63, (S)-6-(5-chloro-2-(4-chloro-1H-1,2,3-triazol-1-yl)phenyl)-3-(1-(4-(dimethylamino)piperidin-1-yl)-1-oxo-3-phenylpropan-2-yl)pyrimidin-4(3H)-one]
15 | 7.37 µM | O=C([C@H](Cc1ccccc1)n1cnc(-c2cc(Cl)ccc2-n2cc(Cl)nn2)cc1=O)N1CCC(CO)CC1 [Example 56, (S)-6-(5-chloro-2-(4-chloro-1H-1,2,3-triazol-1-yl)phenyl)-3-(1-(4-(hydroxymethyl)piperidin-1-yl)-1-oxo-3-phenylpropan-2-yl)pyrimidin-4(3H)-one]
16 | 7.37 µM | CC(=O)N1CCN(C(=O)[C@H](Cc2ccccc2)n2cnc(-c3cc(Cl)ccc3-n3cc(Cl)nn3)cc2=O)CC1 [Example 60, (S)-3-(1-(4-acetylpiperazin-1-yl)-1-oxo-3-phenylpropan-2-yl)-6-(5-chloro-2-(4-chloro-1H-1,2,3-triazol-1-yl)phenyl)pyrimidin-4(3H)-one]
17 | 6.59 µM | O=C(NCc1nccs1)[C@H](Cc1ccccc1)n1cnc(-c2cc(Cl)ccc2-n2cc(Cl)nn2)cc1=O [Example 50, (S)-2-(4-(5-chloro-2-(4-chloro-1H-1,2,3-triazol-1-yl)phenyl)-6-oxopyrimidin-1(6H)-yl)-3-phenyl-N-(thiazol-2-ylmethyl)propanamide]
18 | 6.17 µM | NC(=O)CCNC(=O)[C@H](Cc1ccccc1)n1cnc(-c2cc(Cl)ccc2-n2cc(Cl)nn2)cc1=O [Example 59, (S)-N-(3-amino-3-oxopropyl)-2-(4-(5-chloro-2-(4-chloro-1H-1,2,3-triazol-1-yl)phenyl)-6-oxopyrimidin-1(6H)-yl)-3-phenylpropanamide]
19 | 4.94 µM | O=C1CCN(C(=O)[C@H](Cc2ccccc2)n2cnc(-c3cc(Cl)ccc3-n3cc(Cl)nn3)cc2=O)CCN1 [Example 55, (S)-1-(2-(4-(5-chloro-2-(4-chloro-1H-1,2,3-triazol-1-yl)phenyl)-6-oxopyrimidin-1(6H)-yl)-3-phenylpropanoyl)-1,4-diazepan-5-one]
20 | 4.89 µM | O=C([C@H](Cc1ccccc1)n1cnc(-c2cc(Cl)ccc2-n2cc(Cl)nn2)cc1=O)N1CCN(c2ccncc2)CC1 [Example 57, (S)-6-(5-chloro-2-(4-chloro-1H-1,2,3-triazol-1-yl)phenyl)-3-(1-oxo-3-phenyl-1-(4-(pyridin-4-yl)piperazin-1-yl)propan-2-yl)pyrimidin-4(3H)-one]
21 | 4.44 µM | O=C([C@H](Cc1ccccc1)n1cnc(-c2cc(Cl)ccc2-n2cc(Cl)nn2)cc1=O)N1CCC(c2ccc(Cl)cc2)CC1 [Example 52, (S)-6-(5-chloro-2-(4-chloro-1H-1,2,3-triazol-1-yl)phenyl)-3-(1-(4-(4-chlorophenyl)piperidin-1-yl)-1-oxo-3-phenylpropan-2-yl)pyrimidin-4(3H)-one]
22 | 4.41 µM | CN1CCN(C(=O)[C@H](Cc2ccccc2)n2cnc(-c3cc(Cl)ccc3-n3cc(Cl)nn3)cc2=O)CC1 [Example 68, (S)-6-(5-chloro-2-(4-chloro-1H-1,2,3-triazol-1-yl)phenyl)-3-(1-(4-methylpiperazin-1-yl)-1-oxo-3-phenylpropan-2-yl)pyrimidin-4(3H)-one]
23 | 3.99 µM | CN1[C@@H]2CC[C@H]1C[C@@H](NC(=O)[C@H](Cc1ccccc1)n1cnc(-c3cc(Cl)ccc3-n3cc(Cl)nn3)cc1=O)C2 [Example 54, (S)-2-(4-(5-chloro-2-(4-chloro-1H-1,2,3-triazol-1-yl)phenyl)-6-oxopyrimidin-1(6H)-yl)-N-((1R,3r,5S)-8-methyl-8-azabicyclo[3.2.1]octan-3-yl)-3-phenylpropanamide]
24 | 1.48 µM | Cc1cnc(CNC(=O)[C@H](Cc2ccccc2)n2cnc(-c3cc(Cl)ccc3-n3cc(Cl)nn3)cc2=O)cn1 [Example 51, (S)-2-(4-(5-chloro-2-(4-chloro-1H-1,2,3-triazol-1-yl)phenyl)-6-oxopyrimidin-1(6H)-yl)-N-((5-methylpyrazin-2-yl)methyl)-3-phenylpropanamide]
25 | 1.27 µM | NS(=O)(=O)c1ccc(CNC(=O)[C@H](Cc2ccccc2)n2cnc(-c3cc(Cl)ccc3-n3cc(Cl)nn3)cc2=O)cc1 [Example 64, (S)-2-(4-(5-chloro-2-(4-chloro-1H-1,2,3-triazol-1-yl)phenyl)-6-oxopyrimidin-1(6H)-yl)-3-phenyl-N-(4-sulfamoylbenzyl)propanamide]
